pIC50: −log10 of the molar value.
Test system: 648629-189-R-J1-PDC spheroids with HUVEC/MSC, viability
Test: Anticancer human tumor 648629-189-R-J1-PDC patient-derived bladder carcinoma cell line growth inhibition [PI3K]
Settings: for pIC50: curve of first compound; for viability, T/C: stronger effect = lower value
Summary of the method: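 High-throughput combination screen: PI3K inhibitors crossed with targeted small molecules on complex spheroids of tumor cells, HUVEC and MSCs at 37 degrees C, 5% CO2. Top concentration was at or near clinical Cmax (otherwise 10 microM), with half-log decrements.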

[1] = second compound 0.0316 µM, first compound 0.0316 µM
[2] = second compound 0.0316 µM, first compound 0.1 µM
[3] = second compound 0.0316 µM, first compound 0.316 µM
[4] = second compound 0.0316 µM, first compound 1 µM
[5] = second compound 0.0316 µM, first compound 3.16 µM
[6] = second compound 0.0316 µM, first compound 10 µM
[7] = second compound 0.1 µM, first compound 0.0316 µM
[8] = second compound 0.1 µM, first compound 0.1 µM
[9] = second compound 0.1 µM, first compound 0.316 µM
[10] = second compound 0.1 µM, first compound 1 µM
[11] = second compound 0.1 µM, first compound 3.16 µM
[12] = second compound 0.1 µM, first compound 10 µM
[13] = second compound 0.316 µM, first compound 0.0316 µM
[14] = second compound 0.316 µM, first compound 0.1 µM
[15] = second compound 0.316 µM, first compound 0.316 µM
[16] = second compound 0.316 µM, first compound 1 µM
[17] = second compound 0.316 µM, first compound 3.16 µM
[18] = second compound 0.316 µM, first compound 10 µM
[19] = second compound 1 µM, first compound 0.0316 µM
[20] = second compound 1 µM, first compound 0.1 µM
[21] = second compound 1 µM, first compound 0.316 µM
[22] = second compound 1 µM, first compound 1 µM
[23] = second compound 1 µM, first compound 3.16 µM
[24] = second compound 1 µM, first compound 10 µM
[25] = second compound 3.16 µM, first compound 0.0316 µM
[26] = second compound 3.16 µM, first compound 0.1 µM
[27] = second compound 3.16 µM, first compound 0.316 µM
[28] = second compound 3.16 µM, first compound 1 µM
[29] = second compound 3.16 µM, first compound 3.16 µM
[30] = second compound 3.16 µM, first compound 10 µM
[31] = second compound 10 µM, first compound 0.0316 µM
[32] = second compound 10 µM, first compound 0.1 µM
[33] = second compound 10 µM, first compound 0.316 µM
[34] = second compound 10 µM, first compound 1 µM
[35] = second compound 10 µM, first compound 3.16 µM
[36] = second compound 10 µM, first compound 10 µM
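Also: spheroids exposed to agents for seven days before reading.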
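For viability, T/C in this document: percent of vehicle control luminescence where 100% = DMSO treated spheroids.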

C#Cc1c(F)ccc2cc(O)cc(-c3ncc4c(N5CC6CCC(C5)N6)nc(OCC56CCCN5CC(F)C6)nc4c3F)c12 (stereo not drawn) + CC(Nc1ncnc2nc[nH]c12)c1cc2cccc(Cl)c2c(=O)n1-c1ccccc1
pIC50 (second compound 0.0316 µM): < 5.00
pIC50 (second compound 0.1 µM): < 5.00
pIC50 (second compound 0.316 µM): < 5.00
pIC50 (second compound 1 µM): < 5.00
pIC50 (second compound 3.16 µM): < 5.00
pIC50 (second compound 10 µM): < 5.00
viability, T/C [1]: 116%
viability, T/C [2]: 114%
viability, T/C [3]: 103%
viability, T/C [4]: 107%
viability, T/C [5]: 105%
viability, T/C [6]: 117%
viability, T/C [7]: 116%
viability, T/C [8]: 100%
viability, T/C [9]: 104%
viability, T/C [10]: 106%
viability, T/C [11]: 117%
viability, T/C [12]: 110%
viability, T/C [13]: 102%
viability, T/C [14]: 110%
viability, T/C [15]: 101%
viability, T/C [16]: 113%
viability, T/C [17]: 116%
viability, T/C [18]: 111%
viability, T/C [19]: 92.8%
viability, T/C [20]: 104%
viability, T/C [21]: 107%
viability, T/C [22]: 114%
viability, T/C [23]: 107%
viability, T/C [24]: 94.4%
viability, T/C [25]: 92%
viability, T/C [26]: 91.4%
viability, T/C [27]: 90.7%
viability, T/C [28]: 90.1%
viability, T/C [29]: 93.4%
viability, T/C [30]: 88.1%
viability, T/C [31]: 90.7%
viability, T/C [32]: 86.1%
viability, T/C [33]: 75.7%
viability, T/C [34]: 102%
viability, T/C [35]: 92.5%
viability, T/C [36]: 80.3%

C=CC(=O)N1CCN(c2nc(=O)n(-c3c(C)ccnc3C(C)C)c3nc(-c4c(O)cccc4F)c(F)cc23)C(C)C1 (stereo not drawn) + CC(Nc1ncnc2nc[nH]c12)c1cc2cccc(Cl)c2c(=O)n1-c1ccccc1
pIC50 (second compound 0.0316 µM): < 5.00
pIC50 (second compound 0.1 µM): < 5.00
pIC50 (second compound 0.316 µM): < 5.00
pIC50 (second compound 1 µM): < 5.00
pIC50 (second compound 3.16 µM): < 5.00
pIC50 (second compound 10 µM): < 5.00
viability, T/C [1]: 106%
viability, T/C [2]: 95.3%
viability, T/C [3]: 107%
viability, T/C [4]: 109%
viability, T/C [5]: 103%
viability, T/C [6]: 96.9%
viability, T/C [7]: 102%
viability, T/C [8]: 101%
viability, T/C [9]: 125%
viability, T/C [10]: 104%
viability, T/C [11]: 108%
viability, T/C [12]: 87.5%
viability, T/C [13]: 95.4%
viability, T/C [14]: 115%
viability, T/C [15]: 112%
viability, T/C [16]: 103%
viability, T/C [17]: 112%
viability, T/C [18]: 103%
viability, T/C [19]: 120%
viability, T/C [20]: 99.3%
viability, T/C [21]: 107%
viability, T/C [22]: 107%
viability, T/C [23]: 101%
viability, T/C [24]: 92.1%
viability, T/C [25]: 103%
viability, T/C [26]: 92.1%
viability, T/C [27]: 104%
viability, T/C [28]: 101%
viability, T/C [29]: 106%
viability, T/C [30]: 98.8%
viability, T/C [31]: 94.2%
viability, T/C [32]: 86.9%
viability, T/C [33]: 96.4%
viability, T/C [34]: 95.6%
viability, T/C [35]: 89.8%
viability, T/C [36]: 88.3%

CC(Cn1ccc(-c2ccc(C#N)c(Cl)c2)n1)NC(=O)c1cc(C(C)O)[nH]n1 (stereo not drawn) + CC(Nc1ncnc2nc[nH]c12)c1cc2cccc(Cl)c2c(=O)n1-c1ccccc1
pIC50 (second compound 0.0316 µM): < 5.00
pIC50 (second compound 0.1 µM): < 5.00
pIC50 (second compound 0.316 µM): < 5.00
pIC50 (second compound 1 µM): < 5.00
pIC50 (second compound 3.16 µM): < 5.00
pIC50 (second compound 10 µM): < 5.00
viability, T/C [1]: 99.4%
viability, T/C [2]: 91.1%
viability, T/C [3]: 116%
viability, T/C [4]: 94%
viability, T/C [5]: 105%
viability, T/C [6]: 84.5%
viability, T/C [7]: 99%
viability, T/C [8]: 89.3%
viability, T/C [9]: 115%
viability, T/C [10]: 108%
viability, T/C [11]: 108%
viability, T/C [12]: 80.5%
viability, T/C [13]: 97.9%
viability, T/C [14]: 99%
viability, T/C [15]: 95.2%
viability, T/C [16]: 119%
viability, T/C [17]: 99.4%
viability, T/C [18]: 87.3%
viability, T/C [19]: 107%
viability, T/C [20]: 93.8%
viability, T/C [21]: 106%
viability, T/C [22]: 113%
viability, T/C [23]: 90.8%
viability, T/C [24]: 80%
viability, T/C [25]: 92.2%
viability, T/C [26]: 96%
viability, T/C [27]: 94.7%
viability, T/C [28]: 91.3%
viability, T/C [29]: 92.4%
viability, T/C [30]: 69.5%
viability, T/C [31]: 78.4%
viability, T/C [32]: 93.3%
viability, T/C [33]: 86.8%
viability, T/C [34]: 79.7%
viability, T/C [35]: 89.7%
viability, T/C [36]: 69%

CC1(C)CCC(Nc2ncc(C(F)(F)F)c(-c3c[nH]c4c(P(C)(C)=O)c(C#N)ccc34)n2)CN1 (stereo not drawn) + CC(Nc1ncnc2nc[nH]c12)c1cc2cccc(Cl)c2c(=O)n1-c1ccccc1
pIC50 (second compound 0.0316 µM): > 7.50
pIC50 (second compound 0.1 µM): > 7.50
pIC50 (second compound 0.316 µM): > 7.50
pIC50 (second compound 1 µM): > 7.50
pIC50 (second compound 3.16 µM): > 7.50
pIC50 (second compound 10 µM): > 7.50
viability, T/C [1]: 35.1%
viability, T/C [2]: 29%
viability, T/C [3]: 35.4%
viability, T/C [4]: 35.2%
viability, T/C [5]: 43%
viability, T/C [6]: 11.7%
viability, T/C [7]: 36.7%
viability, T/C [8]: 33.5%
viability, T/C [9]: 28.3%
viability, T/C [10]: 36%
viability, T/C [11]: 39.6%
viability, T/C [12]: 10.8%
viability, T/C [13]: 32%
viability, T/C [14]: 29.4%
viability, T/C [15]: 29.1%
viability, T/C [16]: 31.8%
viability, T/C [17]: 39.1%
viability, T/C [18]: 11.5%
viability, T/C [19]: 30.6%
viability, T/C [20]: 32.4%
viability, T/C [21]: 29.8%
viability, T/C [22]: 31.6%
viability, T/C [23]: 42%
viability, T/C [24]: 10.1%
viability, T/C [25]: 34%
viability, T/C [26]: 29.2%
viability, T/C [27]: 28.9%
viability, T/C [28]: 30.7%
viability, T/C [29]: 36.2%
viability, T/C [30]: 7.47%
viability, T/C [31]: 39.7%
viability, T/C [32]: 32%
viability, T/C [33]: 33.3%
viability, T/C [34]: 30.2%
viability, T/C [35]: 34.7%
viability, T/C [36]: 4.52%

Source: PubChem BioAssay AID1963974 (Molecular Pharmacology Branch, DTP, NCI, 2024)
